Test results published in patent publication US20260356819A1, “OXOISOINDOLINYL-SUBSTITUTED […] DERIVATIVE AND USE THEREOF” (GLUETACS THERAPEUTICS (SHANGHAI) CO., LTD., priority 2023, published 2026).

Columns and labels:
Type in all cases: cell-based
Conditions in all cases: compounds at 50 nM and 500 nM
[1] = molecular target: T1, WEE1 (Homo sapiens, UniProt P30291+Q96SW2); assay: Western blot degradation of WEE1 in hPBMCs (24 h)
T1 construct: The supernatant was aspirated as the extracted total cell protein; endogenous in cells; host or cells: human peripheral blood mononuclear cells (hPBMCs)
T1 sequence (P30291 whole entry): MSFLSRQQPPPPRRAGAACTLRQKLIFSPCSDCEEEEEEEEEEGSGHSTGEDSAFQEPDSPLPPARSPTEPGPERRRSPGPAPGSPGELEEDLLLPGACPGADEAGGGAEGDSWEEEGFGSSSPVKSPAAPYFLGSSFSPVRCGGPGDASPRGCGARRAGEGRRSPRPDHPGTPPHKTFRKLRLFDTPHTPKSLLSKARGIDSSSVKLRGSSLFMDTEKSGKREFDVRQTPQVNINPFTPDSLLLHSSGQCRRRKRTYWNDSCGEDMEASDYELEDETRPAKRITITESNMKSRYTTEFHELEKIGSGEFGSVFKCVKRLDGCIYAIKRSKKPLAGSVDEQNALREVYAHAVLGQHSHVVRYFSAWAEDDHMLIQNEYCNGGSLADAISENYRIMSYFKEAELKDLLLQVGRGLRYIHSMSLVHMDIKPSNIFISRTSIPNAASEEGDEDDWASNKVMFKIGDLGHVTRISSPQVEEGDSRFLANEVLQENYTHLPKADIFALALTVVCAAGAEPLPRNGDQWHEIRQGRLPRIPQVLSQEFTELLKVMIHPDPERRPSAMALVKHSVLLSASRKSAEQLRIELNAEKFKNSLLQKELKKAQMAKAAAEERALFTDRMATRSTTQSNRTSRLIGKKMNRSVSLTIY
T1 sequence (Q96SW2 whole entry): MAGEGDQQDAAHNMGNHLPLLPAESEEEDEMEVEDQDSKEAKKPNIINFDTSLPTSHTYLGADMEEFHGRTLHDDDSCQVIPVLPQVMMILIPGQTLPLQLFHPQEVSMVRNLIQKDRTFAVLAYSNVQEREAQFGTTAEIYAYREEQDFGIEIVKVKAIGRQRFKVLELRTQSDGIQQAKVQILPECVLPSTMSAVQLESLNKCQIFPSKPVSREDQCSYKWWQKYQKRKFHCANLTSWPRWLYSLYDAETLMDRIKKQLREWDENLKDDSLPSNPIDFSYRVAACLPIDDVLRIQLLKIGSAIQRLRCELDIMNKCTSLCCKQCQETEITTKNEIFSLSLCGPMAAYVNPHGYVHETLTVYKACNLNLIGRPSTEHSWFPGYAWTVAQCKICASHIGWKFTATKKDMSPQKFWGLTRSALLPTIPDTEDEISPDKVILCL
T1 sequence (Q16531 whole entry partner): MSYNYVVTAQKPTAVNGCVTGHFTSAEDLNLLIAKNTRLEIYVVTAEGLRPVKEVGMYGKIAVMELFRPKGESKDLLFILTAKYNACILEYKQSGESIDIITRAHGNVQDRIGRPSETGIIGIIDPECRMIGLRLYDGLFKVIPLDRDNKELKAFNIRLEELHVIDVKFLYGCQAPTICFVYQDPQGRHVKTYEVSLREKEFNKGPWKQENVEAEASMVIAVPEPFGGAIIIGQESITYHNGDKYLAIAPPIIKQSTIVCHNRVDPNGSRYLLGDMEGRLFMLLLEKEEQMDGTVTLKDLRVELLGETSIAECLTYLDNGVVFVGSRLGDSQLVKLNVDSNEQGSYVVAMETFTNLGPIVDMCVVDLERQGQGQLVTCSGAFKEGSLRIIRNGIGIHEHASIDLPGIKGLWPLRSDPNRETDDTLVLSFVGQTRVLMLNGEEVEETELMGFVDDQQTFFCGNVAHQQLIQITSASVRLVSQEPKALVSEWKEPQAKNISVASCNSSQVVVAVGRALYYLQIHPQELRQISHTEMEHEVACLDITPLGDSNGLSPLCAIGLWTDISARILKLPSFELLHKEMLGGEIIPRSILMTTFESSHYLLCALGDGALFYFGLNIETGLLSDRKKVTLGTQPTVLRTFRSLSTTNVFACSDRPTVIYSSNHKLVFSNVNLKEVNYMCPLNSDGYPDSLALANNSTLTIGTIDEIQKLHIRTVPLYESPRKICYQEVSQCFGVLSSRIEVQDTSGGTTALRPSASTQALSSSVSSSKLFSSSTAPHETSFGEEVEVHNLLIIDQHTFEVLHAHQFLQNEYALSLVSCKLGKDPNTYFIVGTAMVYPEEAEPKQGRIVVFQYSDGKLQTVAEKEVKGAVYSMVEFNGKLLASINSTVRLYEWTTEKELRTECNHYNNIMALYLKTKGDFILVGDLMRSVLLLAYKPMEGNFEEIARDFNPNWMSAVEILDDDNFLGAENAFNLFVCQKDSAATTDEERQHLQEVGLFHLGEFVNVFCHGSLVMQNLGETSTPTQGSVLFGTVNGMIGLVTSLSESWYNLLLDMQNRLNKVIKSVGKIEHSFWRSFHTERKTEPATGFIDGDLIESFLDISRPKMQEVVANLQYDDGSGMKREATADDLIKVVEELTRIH
How it was run: (§1)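 Degradation in primary human PBMCs after 24 h compound exposure at 50 and 500 nM. Western blot band intensities, normalised to an internal control protein, expressed as % protein remaining relative to DMSO.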

[2] = molecular target: T2, IKZF3 (Homo sapiens, UniProt Q96SW2+Q9UKT9); assay: Western blot degradation of IKZF3 in hPBMCs (24 h)
T2 construct: The supernatant was aspirated as the extracted total cell protein; endogenous in cells; host or cells: human peripheral blood mononuclear cells (hPBMCs)
T2 sequence (Q9UKT9 whole entry): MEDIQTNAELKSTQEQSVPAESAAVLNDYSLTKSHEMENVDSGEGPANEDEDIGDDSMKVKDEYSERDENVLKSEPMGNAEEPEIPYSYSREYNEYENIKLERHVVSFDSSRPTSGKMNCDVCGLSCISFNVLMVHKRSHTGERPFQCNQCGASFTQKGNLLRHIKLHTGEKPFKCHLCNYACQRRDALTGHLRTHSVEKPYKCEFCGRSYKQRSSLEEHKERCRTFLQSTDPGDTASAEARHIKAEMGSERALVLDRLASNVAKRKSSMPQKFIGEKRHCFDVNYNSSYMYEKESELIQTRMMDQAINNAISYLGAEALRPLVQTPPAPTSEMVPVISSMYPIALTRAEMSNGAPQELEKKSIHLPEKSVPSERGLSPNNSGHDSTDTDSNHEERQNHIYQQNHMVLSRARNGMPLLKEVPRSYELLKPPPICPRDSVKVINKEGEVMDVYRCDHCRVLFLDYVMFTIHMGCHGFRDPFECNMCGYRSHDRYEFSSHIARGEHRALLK
T2 sequence (Q96SW2 whole entry): as the sequence (Q96SW2 whole entry) above
T2 sequence (Q16531 whole entry partner): as the sequence (Q16531 whole entry partner) above
How it was run: as §1

[3] = molecular target: T3, CK1α (Homo sapiens, UniProt P48729+Q96SW2); assay: Western blot degradation of CK1α in hPBMCs (24 h)
T3 construct: The supernatant was aspirated as the extracted total cell protein; endogenous in cells; host or cells: human peripheral blood mononuclear cells (hPBMCs)
How it was run: as §1

[4] = molecular target: T4, IKZF2 (Homo sapiens, UniProt Q96SW2+Q9UKS7); assay: Western blot degradation of IKZF2 in hPBMCs (24 h)
T4 construct: The supernatant was aspirated as the extracted total cell protein; endogenous in cells; host or cells: human peripheral blood mononuclear cells (hPBMCs)
T4 sequence (Q9UKS7 whole entry): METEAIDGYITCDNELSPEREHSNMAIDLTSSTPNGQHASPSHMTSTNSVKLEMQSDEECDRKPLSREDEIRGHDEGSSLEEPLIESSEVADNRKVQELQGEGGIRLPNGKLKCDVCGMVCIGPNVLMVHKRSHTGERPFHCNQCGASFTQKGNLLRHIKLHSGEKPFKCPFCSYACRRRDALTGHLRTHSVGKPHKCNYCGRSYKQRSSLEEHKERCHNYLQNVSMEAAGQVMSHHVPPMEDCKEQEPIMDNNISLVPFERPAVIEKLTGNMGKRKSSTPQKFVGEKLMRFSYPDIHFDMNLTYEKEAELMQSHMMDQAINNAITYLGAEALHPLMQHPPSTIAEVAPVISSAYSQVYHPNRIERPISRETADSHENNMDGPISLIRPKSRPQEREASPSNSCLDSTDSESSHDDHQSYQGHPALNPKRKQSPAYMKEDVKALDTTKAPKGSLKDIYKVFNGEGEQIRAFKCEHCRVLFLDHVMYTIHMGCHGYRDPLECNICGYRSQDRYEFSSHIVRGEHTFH
T4 sequence (Q96SW2 whole entry): as the sequence (Q96SW2 whole entry) above
T4 sequence (Q16531 whole entry partner): as the sequence (Q16531 whole entry partner) above
How it was run: as §1

[5] = molecular target: T5, GSPT1 (Homo sapiens, UniProt P15170+Q96SW2); assay: Western blot degradation of GSPT1 in hPBMCs (24 h)
T5 construct: The supernatant was aspirated as the extracted total cell protein; endogenous in cells; host or cells: human peripheral blood mononuclear cells (hPBMCs)
T5 sequence (P15170 whole entry): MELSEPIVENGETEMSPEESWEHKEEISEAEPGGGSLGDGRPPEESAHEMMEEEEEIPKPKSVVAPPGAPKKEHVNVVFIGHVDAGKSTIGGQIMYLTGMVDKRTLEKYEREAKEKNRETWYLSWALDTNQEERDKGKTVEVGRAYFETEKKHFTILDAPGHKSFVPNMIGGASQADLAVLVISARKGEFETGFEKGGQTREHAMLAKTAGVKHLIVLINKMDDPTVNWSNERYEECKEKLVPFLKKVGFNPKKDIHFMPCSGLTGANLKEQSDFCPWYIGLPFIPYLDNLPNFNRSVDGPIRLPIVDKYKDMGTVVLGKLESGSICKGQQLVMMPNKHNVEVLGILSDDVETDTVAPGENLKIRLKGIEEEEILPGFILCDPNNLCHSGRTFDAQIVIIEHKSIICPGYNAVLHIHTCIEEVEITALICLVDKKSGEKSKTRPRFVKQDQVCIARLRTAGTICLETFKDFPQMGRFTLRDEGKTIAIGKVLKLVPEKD
T5 sequence (Q96SW2 whole entry): as the sequence (Q96SW2 whole entry) above
T5 sequence (Q16531 whole entry partner): as the sequence (Q16531 whole entry partner) above
How it was run: as §1

[6] = molecular target: T6, IKZF1 (Homo sapiens, UniProt Q13422+Q96SW2); assay: Western blot degradation of IKZF1 in hPBMCs (24 h)
T6 construct: The supernatant was aspirated as the extracted total cell protein; endogenous in cells; host or cells: human peripheral blood mononuclear cells (hPBMCs)
T6 sequence (Q13422 whole entry): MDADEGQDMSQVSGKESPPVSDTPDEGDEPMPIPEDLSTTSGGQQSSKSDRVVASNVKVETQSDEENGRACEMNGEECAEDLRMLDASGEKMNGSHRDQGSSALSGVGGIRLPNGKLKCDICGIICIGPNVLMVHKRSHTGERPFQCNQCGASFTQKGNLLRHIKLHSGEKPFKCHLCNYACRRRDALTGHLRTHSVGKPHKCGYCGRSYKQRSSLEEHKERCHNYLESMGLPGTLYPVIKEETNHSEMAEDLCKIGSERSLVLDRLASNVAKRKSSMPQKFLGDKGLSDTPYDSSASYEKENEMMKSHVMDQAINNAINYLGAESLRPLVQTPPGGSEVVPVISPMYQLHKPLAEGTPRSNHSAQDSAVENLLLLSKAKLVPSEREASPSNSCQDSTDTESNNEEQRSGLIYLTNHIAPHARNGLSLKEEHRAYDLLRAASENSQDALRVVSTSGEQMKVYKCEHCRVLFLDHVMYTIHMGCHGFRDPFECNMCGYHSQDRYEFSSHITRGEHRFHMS
T6 sequence (Q96SW2 whole entry): as the sequence (Q96SW2 whole entry) above
T6 sequence (Q16531 whole entry partner): as the sequence (Q16531 whole entry partner) above
How it was run: as §1

SMILES | WEE1 substrate protein remaining % [1] | IKZF3 substrate protein remaining % [2] | CK1α substrate protein remaining % [3] | IKZF2 substrate protein remaining % [4] | GSPT1 substrate protein remaining % [5] | IKZF1 substrate protein remaining % [6]
O=C1CCN(N2Cc3cc(CN4CCN(c5ncnc6sc7c(c56)CCC7)CC4)ccc3C2=O)C(=O)N1 [GT-08079, 1-(5-((4-(6,7-dihydro-5H-cyclopenta[4,5]thieno[2,3-d]pyrimidin-4-yl)piperazin-1-yl)methyl)-1-oxoisoindolin-2-yl)dihydropyrimidine-2,4(1H,3H)-dione] | A (0% ≤ substrate protein remaining % ≤80%) | B (80%< substrate protein remaining % ≤100%) | A (0% ≤ substrate protein remaining % ≤80%) | B (80%< substrate protein remaining % ≤100%) | A (0% ≤ substrate protein remaining % ≤80%) | B (80%< substrate protein remaining % ≤100%)
Cc1nc(N2CCN(Cc3ccc4c(c3)CN(N3CCC(=O)NC3=O)C4=O)CC2)c2c3c(sc2n1)CCC3 [GT-08080, 1-(5-((4-(2-methyl-6,7-dihydro-5H-cyclopenta[4,5]thieno[2,3-d]pyrimidin-4-yl)piperazin-1-yl)methyl)-1-oxoisoindolin-2-yl)dihydropyrimidine-2,4(1H,3H)-dione] | A (0% ≤ substrate protein remaining % ≤80%) | B (80%< substrate protein remaining % ≤100%) | A (0% ≤ substrate protein remaining % ≤80%) | B (80%< substrate protein remaining % ≤100%) | A (0% ≤ substrate protein remaining % ≤80%) | B (80%< substrate protein remaining % ≤100%)
O=C1CCN(N2Cc3cc(CN4CCN(c5ncc6ccsc6n5)CC4)ccc3C2=O)C(=O)N1 [GT-08081, 1-(1-oxo-5-((4-(thieno[2,3-d]pyrimidin-2-yl)piperazin-1-yl)methyl)isoindolin-2-yl)dihydropyrimidine-2,4(1H,3H)-dione] | A (0% ≤ substrate protein remaining % ≤80%) | B (80%< substrate protein remaining % ≤100%) | A (0% ≤ substrate protein remaining % ≤80%) | B (80%< substrate protein remaining % ≤100%) | A (0% ≤ substrate protein remaining % ≤80%) | B (80%< substrate protein remaining % ≤100%)
O=C1CCN(N2Cc3cc(CN4CCC(c5ncnc6sccc56)CC4)ccc3C2=O)C(=O)N1 [GT-08082, 1-(1-oxo-5-((4-(thieno[2,3-d]pyrimidin-4-yl)piperidin-1-yl)methyl)isoindolin-2-yl)dihydropyrimidine-2,4(1H,3H)-dione] | A (0% ≤ substrate protein remaining % ≤80%) | B (80%< substrate protein remaining % ≤100%) | A (0% ≤ substrate protein remaining % ≤80%) | B (80%< substrate protein remaining % ≤100%) | A (0% ≤ substrate protein remaining % ≤80%) | B (80%< substrate protein remaining % ≤100%)
Cc1cc2c(C3CCN(Cc4ccc5c(c4)CN(N4CCC(=O)NC4=O)C5=O)CC3)ncnc2s1 [GT-08083, 1-(5-((4-(6-methylthieno[2,3-d]pyrimidin-4-yl)piperidin-1-yl)methyl)-1-oxoisoindolin-2-yl)dihydropyrimidine-2,4(1H,3H)-dione] | B (80%< substrate protein remaining % ≤100%) | B (80%< substrate protein remaining % ≤100%) | A (0% ≤ substrate protein remaining % ≤80%) | B (80%< substrate protein remaining % ≤100%) | A (0% ≤ substrate protein remaining % ≤80%) | B (80%< substrate protein remaining % ≤100%)
Cc1sc2ncnc(C3CCN(Cc4ccc5c(c4)CN(N4CCC(=O)NC4=O)C5=O)CC3)c2c1C [GT-08084, 1-(5-((4-(5,6-dimethylthieno[2,3-d]pyrimidin-4-yl)piperidin-1-yl)methyl)-1-oxoisoindolin-2-yl)dihydropyrimidine-2,4(1H,3H)-dione] | B (80%< substrate protein remaining % ≤100%) | B (80%< substrate protein remaining % ≤100%) | A (0% ≤ substrate protein remaining % ≤80%) | B (80%< substrate protein remaining % ≤100%) | A (0% ≤ substrate protein remaining % ≤80%) | B (80%< substrate protein remaining % ≤100%)
O=C1CCN(N2Cc3cc(CN4CCC(c5ncnc6sc(-c7ccccc7)cc56)CC4)ccc3C2=O)C(=O)N1 [GT-08085, 1-(1-oxo-5-((4-(6-phenylthieno[2,3-d]pyrimidin-4-yl)piperidin-1-yl)methyl)isoindolin-2-yl)dihydropyrimidine-2,4(1H,3H)-dione] | B (80%< substrate protein remaining % ≤100%) | B (80%< substrate protein remaining % ≤100%) | A (0% ≤ substrate protein remaining % ≤80%) | B (80%< substrate protein remaining % ≤100%) | A (0% ≤ substrate protein remaining % ≤80%) | B (80%< substrate protein remaining % ≤100%)
Cc1nc(C2CCN(Cc3ccc4c(c3)CN(N3CCC(=O)NC3=O)C4=O)CC2)c2ccsc2n1 [GT-08088, 1-(5-((4-(2-methylthieno[2,3-d]pyrimidin-4-yl)piperidin-1-yl)methyl)-1-oxoisoindolin-2-yl)dihydropyrimidine-2,4(1H,3H)-dione] | A (0% ≤ substrate protein remaining % ≤80%) | B (80%< substrate protein remaining % ≤100%) | A (0% ≤ substrate protein remaining % ≤80%) | B (80%< substrate protein remaining % ≤100%) | A (0% ≤ substrate protein remaining % ≤80%) | B (80%< substrate protein remaining % ≤100%)
Cc1nc(C2CCN(Cc3ccc4c(c3)CN(N3CCC(=O)NC3=O)C4=O)CC2)c2c3c(sc2n1)CCCC3 [GT-08089, 1-(5-((4-(2-methyl-5,6,7,8-tetrahydrobenzo[4,5]thieno[2,3-d]pyrimidin-4-yl)piperidin-1-yl)methyl)-1-oxoisoindolin-2-yl)dihydropyrimidine-2,4(1H,3H)-dione] | A (0% ≤ substrate protein remaining % ≤80%) | B (80%< substrate protein remaining % ≤100%) | A (0% ≤ substrate protein remaining % ≤80%) | B (80%< substrate protein remaining % ≤100%) | A (0% ≤ substrate protein remaining % ≤80%) | B (80%< substrate protein remaining % ≤100%)
O=C1CCN(N2C(=O)c3ccc(CN4CCN(c5ncnc6sccc56)CC4)cc3C2=O)C(=O)N1 [GT-08090, 2-(2,4-dioxotetrahydropyrimidin-1(2H)-yl)-5-((4-(thieno[2,3-d]pyrimidin-4-yl)piperazin-1-yl)methyl)isoindoline-1,3-dione] | A (0% ≤ substrate protein remaining % ≤80%) | B (80%< substrate protein remaining % ≤100%) | A (0% ≤ substrate protein remaining % ≤80%) | B (80%< substrate protein remaining % ≤100%) | A (0% ≤ substrate protein remaining % ≤80%) | B (80%< substrate protein remaining % ≤100%)
Cc1csc2ncnc(N3CCN(Cc4ccc5c(c4)C(=O)N(N4CCC(=O)NC4=O)C5=O)CC3)c12 [GT-08091, 2-(2,4-dioxotetrahydropyrimidin-1(2H)-yl)-5-((4-(5-methylthieno[2,3-d]pyrimidin-4-yl)piperazin-1-yl)methyl)isoindoline-1,3-dione] | A (0% ≤ substrate protein remaining % ≤80%) | B (80%< substrate protein remaining % ≤100%) | A (0% ≤ substrate protein remaining % ≤80%) | B (80%< substrate protein remaining % ≤100%) | A (0% ≤ substrate protein remaining % ≤80%) | B (80%< substrate protein remaining % ≤100%)
Cc1cc2c(N3CCN(Cc4ccc5c(c4)C(=O)N(N4CCC(=O)NC4=O)C5=O)CC3)ncnc2s1 [GT-08092, 2-(2,4-dioxotetrahydropyrimidin-1(2H)-yl)-5-((4-(6-methylthieno[2,3-d]pyrimidin-4-yl)piperazin-1-yl)methyl)isoindoline-1,3-dione] | A (0% ≤ substrate protein remaining % ≤80%) | B (80%< substrate protein remaining % ≤100%) | A (0% ≤ substrate protein remaining % ≤80%) | B (80%< substrate protein remaining % ≤100%) | A (0% ≤ substrate protein remaining % ≤80%) | B (80%< substrate protein remaining % ≤100%)
